3 molecules from patent publication US12275731B2, “Azaindole inhibitors of wild-type and mutant forms of LRRK2” (DANA-FARBER CANCER INSTITUTE, INC., priority 2018, dated 2025) can be followed below.

What all share (assay): KinomeScan profiling
Common to all, as to format: binding

One experiment has as its target T1, ABL2 (Homo sapiens, UniProt P42684).
T1 construct: purchased KinomeScan®
As to conditions: ABL2, 1 μM; read-out: % control. The gist of the method: (§1)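 Percent-of-control values derive from RLU, calculated as (test − positive)/(negative − positive) × 100, where DMSO defines 100% and a positive control compound defines 0%. Each compound was tested at 1 μM in the 468-kinase panel; sub-35% readings indicate activity.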

Another experiment addresses T2, ADCK4 (Homo sapiens, UniProt Q96D53).
T2 construct: purchased KinomeScan®
T2 sequence (Q96D53 1-544): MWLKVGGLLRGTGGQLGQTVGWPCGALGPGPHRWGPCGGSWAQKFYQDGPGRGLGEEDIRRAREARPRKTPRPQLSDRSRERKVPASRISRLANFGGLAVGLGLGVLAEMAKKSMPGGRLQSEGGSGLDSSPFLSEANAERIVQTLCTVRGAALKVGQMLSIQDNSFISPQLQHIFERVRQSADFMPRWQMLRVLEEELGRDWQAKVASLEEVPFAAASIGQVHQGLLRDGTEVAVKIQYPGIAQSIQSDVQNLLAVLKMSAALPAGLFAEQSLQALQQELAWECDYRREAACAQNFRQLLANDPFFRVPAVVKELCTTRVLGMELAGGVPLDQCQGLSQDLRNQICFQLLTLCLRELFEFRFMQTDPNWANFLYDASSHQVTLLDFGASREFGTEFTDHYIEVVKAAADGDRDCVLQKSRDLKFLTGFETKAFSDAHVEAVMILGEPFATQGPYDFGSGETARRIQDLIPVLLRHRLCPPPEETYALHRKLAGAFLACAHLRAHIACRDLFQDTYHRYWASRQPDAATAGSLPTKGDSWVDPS
The conditions noted are these: ADCK4, 1 μM; read-out: % control. Summed up:
as §1

The target of the next experiment is CSNK1G1 (Homo sapiens, UniProt Q9HCP0). As to conditions: CSNK1G1, 1 μM; read-out: % control. Summed up: as §1
Chain of CSNK1G1 (Q9HCP0 whole entry): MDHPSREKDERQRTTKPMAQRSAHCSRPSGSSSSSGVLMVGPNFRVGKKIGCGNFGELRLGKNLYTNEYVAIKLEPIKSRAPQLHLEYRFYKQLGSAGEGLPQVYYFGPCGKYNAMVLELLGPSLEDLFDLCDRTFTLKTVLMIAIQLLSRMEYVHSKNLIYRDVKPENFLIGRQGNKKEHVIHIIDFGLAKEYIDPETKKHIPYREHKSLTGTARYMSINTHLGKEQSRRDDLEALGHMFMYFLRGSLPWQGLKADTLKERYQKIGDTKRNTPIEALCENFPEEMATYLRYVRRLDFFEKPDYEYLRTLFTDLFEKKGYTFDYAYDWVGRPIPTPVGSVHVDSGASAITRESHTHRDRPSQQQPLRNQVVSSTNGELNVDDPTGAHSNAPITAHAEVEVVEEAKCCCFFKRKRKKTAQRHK
For a further experiment, the target named is FER (Homo sapiens, UniProt P16591). As to conditions: read-out: % control. The gist of the method: as §1
Chain of FER (P16591 whole entry): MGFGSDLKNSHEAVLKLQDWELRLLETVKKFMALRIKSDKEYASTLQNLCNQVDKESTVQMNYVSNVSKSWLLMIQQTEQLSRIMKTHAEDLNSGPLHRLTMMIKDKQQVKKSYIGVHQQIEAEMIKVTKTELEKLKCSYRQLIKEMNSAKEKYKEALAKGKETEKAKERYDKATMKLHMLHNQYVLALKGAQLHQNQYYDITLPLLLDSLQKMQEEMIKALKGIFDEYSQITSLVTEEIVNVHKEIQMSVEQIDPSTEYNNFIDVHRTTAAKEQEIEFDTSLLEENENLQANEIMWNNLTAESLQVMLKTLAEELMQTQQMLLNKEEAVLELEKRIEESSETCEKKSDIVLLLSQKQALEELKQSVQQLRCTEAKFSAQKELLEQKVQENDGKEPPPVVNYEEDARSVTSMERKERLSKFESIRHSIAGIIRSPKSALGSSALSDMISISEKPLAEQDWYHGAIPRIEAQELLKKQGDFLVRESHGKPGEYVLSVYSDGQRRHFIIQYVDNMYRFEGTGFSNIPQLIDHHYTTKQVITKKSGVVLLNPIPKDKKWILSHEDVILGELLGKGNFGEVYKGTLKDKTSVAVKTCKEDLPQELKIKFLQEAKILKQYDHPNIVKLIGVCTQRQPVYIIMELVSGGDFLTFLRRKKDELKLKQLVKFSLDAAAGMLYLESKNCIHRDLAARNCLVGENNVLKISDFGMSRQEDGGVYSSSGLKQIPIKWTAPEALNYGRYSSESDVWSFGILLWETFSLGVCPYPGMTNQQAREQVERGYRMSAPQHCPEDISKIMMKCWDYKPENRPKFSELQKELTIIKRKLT
The target of a further experiment is T3, PLK4 (Homo sapiens, UniProt O00444).
T3 sequence (O00444 1-970): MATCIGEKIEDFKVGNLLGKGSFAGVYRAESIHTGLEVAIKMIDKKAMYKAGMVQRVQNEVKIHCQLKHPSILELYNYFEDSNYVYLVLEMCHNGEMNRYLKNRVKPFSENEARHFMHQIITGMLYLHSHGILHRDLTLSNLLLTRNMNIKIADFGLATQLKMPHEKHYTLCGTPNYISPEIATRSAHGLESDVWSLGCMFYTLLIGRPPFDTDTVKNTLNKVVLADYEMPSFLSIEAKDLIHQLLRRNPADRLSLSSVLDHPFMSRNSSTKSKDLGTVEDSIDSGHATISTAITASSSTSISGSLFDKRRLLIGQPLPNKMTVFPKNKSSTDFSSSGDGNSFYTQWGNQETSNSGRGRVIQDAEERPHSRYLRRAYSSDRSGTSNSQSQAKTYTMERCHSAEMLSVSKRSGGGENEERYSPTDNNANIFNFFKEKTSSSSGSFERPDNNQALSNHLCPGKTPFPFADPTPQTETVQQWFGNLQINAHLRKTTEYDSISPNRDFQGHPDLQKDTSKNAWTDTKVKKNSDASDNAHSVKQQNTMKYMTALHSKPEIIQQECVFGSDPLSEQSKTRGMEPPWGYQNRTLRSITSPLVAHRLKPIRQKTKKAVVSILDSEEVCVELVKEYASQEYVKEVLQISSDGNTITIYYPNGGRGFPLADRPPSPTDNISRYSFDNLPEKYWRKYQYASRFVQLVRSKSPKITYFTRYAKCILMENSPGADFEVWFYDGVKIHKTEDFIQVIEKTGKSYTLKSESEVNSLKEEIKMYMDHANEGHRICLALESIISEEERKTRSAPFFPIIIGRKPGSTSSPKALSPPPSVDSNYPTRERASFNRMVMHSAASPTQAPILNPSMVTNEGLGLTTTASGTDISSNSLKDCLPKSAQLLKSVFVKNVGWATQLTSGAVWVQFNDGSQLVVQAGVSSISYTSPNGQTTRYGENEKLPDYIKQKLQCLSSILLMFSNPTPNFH
The conditions noted are these: PLK4, 1 μM; read-out: % control. The gist of the method:
as §1

The target of experiment [1] is T4, RSK2(Kin.Dom.1-N-terminal) (Homo sapiens, UniProt P51812).
T4 construct: RSK2(Kin.Dom.1-N-terminal)
T4 sequence (P51812 68-327 limits assumed): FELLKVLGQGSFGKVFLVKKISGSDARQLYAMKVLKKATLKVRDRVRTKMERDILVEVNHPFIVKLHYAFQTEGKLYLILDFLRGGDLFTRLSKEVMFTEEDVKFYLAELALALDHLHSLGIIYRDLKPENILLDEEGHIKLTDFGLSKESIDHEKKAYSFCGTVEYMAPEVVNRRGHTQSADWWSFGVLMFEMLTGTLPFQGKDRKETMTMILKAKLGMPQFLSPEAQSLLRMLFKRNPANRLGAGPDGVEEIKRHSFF
As to conditions: read-out: % control. Summed up: as §1

Each structure is given as a SMILES string.

T1 sequence (P42684 whole entry): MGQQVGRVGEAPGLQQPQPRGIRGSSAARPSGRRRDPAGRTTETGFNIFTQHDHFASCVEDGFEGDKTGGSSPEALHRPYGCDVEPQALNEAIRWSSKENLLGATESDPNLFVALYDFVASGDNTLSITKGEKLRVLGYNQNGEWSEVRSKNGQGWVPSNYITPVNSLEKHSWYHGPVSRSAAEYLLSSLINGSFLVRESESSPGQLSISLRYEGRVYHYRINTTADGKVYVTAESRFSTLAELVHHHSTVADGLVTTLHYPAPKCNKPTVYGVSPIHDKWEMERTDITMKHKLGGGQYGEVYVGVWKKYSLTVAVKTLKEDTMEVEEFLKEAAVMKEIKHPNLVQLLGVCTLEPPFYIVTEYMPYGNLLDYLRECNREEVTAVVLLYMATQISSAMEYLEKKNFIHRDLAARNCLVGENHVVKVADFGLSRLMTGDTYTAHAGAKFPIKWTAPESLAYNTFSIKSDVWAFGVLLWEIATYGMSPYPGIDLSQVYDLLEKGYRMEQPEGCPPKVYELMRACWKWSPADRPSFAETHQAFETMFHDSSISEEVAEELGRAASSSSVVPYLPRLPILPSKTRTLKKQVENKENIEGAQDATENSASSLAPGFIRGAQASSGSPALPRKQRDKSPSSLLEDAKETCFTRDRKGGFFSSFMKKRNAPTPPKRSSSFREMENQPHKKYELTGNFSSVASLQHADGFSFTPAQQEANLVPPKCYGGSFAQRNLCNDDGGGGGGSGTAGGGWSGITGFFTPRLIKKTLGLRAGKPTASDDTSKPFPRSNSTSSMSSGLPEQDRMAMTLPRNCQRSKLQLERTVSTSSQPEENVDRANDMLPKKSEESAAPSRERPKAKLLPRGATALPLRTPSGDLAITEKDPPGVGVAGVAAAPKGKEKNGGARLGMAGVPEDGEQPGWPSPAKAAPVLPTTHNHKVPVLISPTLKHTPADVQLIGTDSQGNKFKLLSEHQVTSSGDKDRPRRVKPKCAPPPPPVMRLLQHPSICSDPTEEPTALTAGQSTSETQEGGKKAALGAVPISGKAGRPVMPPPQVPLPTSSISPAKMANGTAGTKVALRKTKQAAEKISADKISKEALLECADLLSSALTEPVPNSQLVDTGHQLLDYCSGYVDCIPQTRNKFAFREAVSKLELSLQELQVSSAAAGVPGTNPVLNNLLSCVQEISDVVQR

For the molecule `CNc1c(-c2ccc(C(=O)N3CCC(N4CCOCC4)CC3)cc2)cnc2[nH]cc(Cl)c12` [Compound 96, (4-(3-chloro-4-(methylamino)-1H-pyrrolo[2,3-b]pyridin-5-yl)phenyl)(4-morpholinopiperidin-1-yl)methanone], the remaining binding at 1 µM is 100% on ABL2; 100% on ADCK4; 19% on CSNK1G1; 100% at FER; 27% at PLK4; 54% in experiment [1].
Take `O=C(c1ccc(-c2cnc3[nH]cc(Cl)c3c2NC2CCCC2)cc1)N1CCC(N2CCOCC2)CC1` [Compound 101, (4-(3-chloro-4-(cyclopentylamino)-1H-pyrrolo[2,3-b]pyridin-5-yl)phenyl)(4-morpholinopiperidin-1-yl)methanone]: the remaining binding at 1 µM came to 99% on ABL2; 100% on ADCK4; 92% at CSNK1G1; 100% at FER; 78% on PLK4; 65% in experiment [1].
Take `CNc1c(-c2cnn([C@H]3CCN(C(C)=O)C[C@@H]3F)c2)cnc2[nH]cc(Cl)c12` [Compound 77, 1-((3S,4S)-4-(4-(3-chloro-4-(methylamino)-1H-pyrrolo[2,3-b]pyridin-5-yl)-1H-pyrazol-1-yl)-3-fluoropiperidin-1-yl)ethan-1-one]: the remaining binding at 1 µM is 92% on ABL2; 100% at ADCK4; 81% at CSNK1G1; 100% at FER; 27% on PLK4; 54% in experiment [1].
